Tests used:
IRAK-4 [1] = biological target: T1, IRAK-4 (Homo sapiens, UniProt Q9NWZ3); experiment: IRAK-4 ELISA, PBMC degradation; format: cell-based; set-up: endogenous in cells; host or cells: PBMC; settings: treated overnight
T1 sequence (Q9NWZ3 1-460): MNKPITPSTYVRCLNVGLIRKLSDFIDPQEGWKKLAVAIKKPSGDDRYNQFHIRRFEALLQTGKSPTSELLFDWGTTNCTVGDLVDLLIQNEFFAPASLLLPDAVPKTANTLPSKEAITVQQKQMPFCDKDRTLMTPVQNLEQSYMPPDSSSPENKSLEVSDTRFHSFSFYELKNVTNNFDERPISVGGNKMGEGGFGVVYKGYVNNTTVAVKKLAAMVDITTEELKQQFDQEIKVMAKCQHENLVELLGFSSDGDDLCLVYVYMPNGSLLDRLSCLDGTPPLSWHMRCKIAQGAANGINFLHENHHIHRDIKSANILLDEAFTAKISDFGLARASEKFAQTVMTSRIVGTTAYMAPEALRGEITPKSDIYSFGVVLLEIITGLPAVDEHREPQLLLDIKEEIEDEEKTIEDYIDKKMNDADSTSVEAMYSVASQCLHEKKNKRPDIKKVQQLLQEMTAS
Outline: (§1)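 OCI-Ly10 cells (1×10^6/ml) or PBMC (2×10^6/ml) treated with compound on the day of seeding and incubated overnight. IRAK-4 protein remaining in cell lysates quantified by sandwich ELISA.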

IL6 [2] = experiment: R848 stimulated IL6 inhibition assay in PBMC; format: cell-based; settings: PBMC, human PBMCs, R848 stimulation, compound overnight, IL6 by MSD after 24 hrs; for Dmax: Homo sapiens, 24 h, read-out: R848 stim IL6 inhibition Dmax; for IC50: read-out: R848 stim IL6 inhibition IC50
Outline: (§2)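 Read-out: MSD quantification of IL6 or IL8 in media collected 24 hrs after stimulation. Human PBMCs (2.0×10^6 cells/mL) received compound overnight before stimulant dosing at an EC50 concentration determined per donor.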

IL8 = experiment: IL-1β stimulated IL8 inhibition assay in PBMC; format: cell-based; settings: human PBMCs, IL-1β stimulation, compound overnight, IL8 by MSD after 24 hrs; for IC50: read-out: IL1β stim IL8 inhibition IC50; for Emax: read-out: IL1β stim IL8 inhibition Ymax
Outline: as §2

IL6 [3] = experiment: LPS stimulated IL6 inhibition assay in PBMC; format: cell-based; settings: Homo sapiens, PBMC, 24 h, human PBMCs, LPS stimulation, compound overnight, IL6 by MSD after 24 hrs; for Dmax: read-out: LPS Stim IL6 inhibition Dmax; for IC50: read-out: LPS stim IL6 inhibition IC50
Outline: as §2

IRAK-4 [4] = biological target: T1, IRAK-4; experiment: IRAK-4 ELISA, OCI-Ly10 degradation; format: cell-based; set-up: endogenous in cells; settings: treated overnight; for Dmax: OCI-Ly10, OCI-Ly10 cells; for DC50: OCI-Ly10 cells
Outline: as §1

IL6 [5] = experiment: IL-1β stimulated IL6 inhibition assay in PBMC; format: cell-based; settings: PBMC, human PBMCs, IL-1β stimulation, compound overnight, IL6 by MSD after 24 hrs; for IC50: Homo sapiens, 24 h, read-out: IL1β stim IL6 inhibition IC50; for Emax: read-out: IL1β stim IL6 inhibition Ymax
Outline: as §2

IRAK-4 [6] = biological target: T2, IRAK-4 (Mus musculus, UniProt Q8R4K2); experiment: PD study in wild type mice (spleen and lung); format: in vivo; settings: oral 10, 30 or 90 mg/kg, terminated 24 h later, ELISA, vs vehicle, FIGS. 3A and 3B
T2 construct: plasma, spleen and lung tissue were collected for analysis of compound concentration and IRAK-4 quantification; from tissue; host or cells: spleen and lung of wild type mice
T2 sequence (Q8R4K2 1-459): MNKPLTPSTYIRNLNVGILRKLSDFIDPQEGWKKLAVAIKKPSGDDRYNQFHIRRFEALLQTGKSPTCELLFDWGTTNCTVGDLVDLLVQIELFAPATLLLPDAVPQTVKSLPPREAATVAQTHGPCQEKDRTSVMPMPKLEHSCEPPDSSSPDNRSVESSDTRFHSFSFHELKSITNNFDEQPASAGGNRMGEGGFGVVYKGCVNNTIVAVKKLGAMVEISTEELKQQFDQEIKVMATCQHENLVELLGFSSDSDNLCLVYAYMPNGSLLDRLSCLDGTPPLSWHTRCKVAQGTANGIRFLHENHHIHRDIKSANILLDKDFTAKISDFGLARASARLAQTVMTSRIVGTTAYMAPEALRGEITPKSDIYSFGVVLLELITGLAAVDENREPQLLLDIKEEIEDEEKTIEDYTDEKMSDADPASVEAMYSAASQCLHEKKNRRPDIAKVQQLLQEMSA
Protocol: FIGS. 3A and 3B. PD study in wild type mice.
A PD Study in Wild Type Mice was Performed
In FIGS. 3A and 3B, mice were randomly assigned to each treatment group. Animals were dosed orally with 10, 30, or 90 mg/kg compound formulated in 10% DMSO, 90% (2% Tween 80 in PEG 400) and terminated 24 h later. At termination, plasma, spleen and lung tissue were collected for analysis of compound concentration and IRAK-4 quantification. Spleen and lung were snap frozen. IRAK-4 content in any tissue is assessed with the same protocol described for tumor lysates.

IRAK-4 [7] = biological target: T1, IRAK-4; experiment: PD study in C.B.17 SCID mice with OCI-LY1 tumor xenograft; format: in vivo; set-up: from tissue; host or cells: OCI-Ly1 tumour xenograft from C.B.17 SCID mice; settings: OCI-Ly1 tumor lysate, ELISA normalized to total protein; oral 5, 15 or 50 mg/kg, 24 hours post-dose; vs vehicle; FIG. 2
Protocol: FIG. 2. PD study in C.B.17 SCID mice with OCI-LY1 tumor xenograft.
PD Study for with in C.B.17 SCID and WT Mice
Cell culture: OCI-Ly1 tumor cells were maintained as a suspension in IMDM medium supplemented with 20% fetal bovine serum under an atmosphere of 5% C02 in air at 37° C. Cell density was maintained below 1×10^6/mL.
Animals: Female C.B. 17 SCID mice aged 6-8 weeks weighing between 16-18 g were used and maintained according to IACUC protocols.
Tumor Inoculation: Each mouse was inoculated with OCI-Ly1 tumor cells (10×106) in 0.1 mL of RPMI with Matrigel. Treatment was initiated when the tumor sizes reached […].
A PD Study in C.B.17 SCID Mice with OCI-LY1 Tumor Xenograft was Performed
In FIG. 2, animals were dosed orally after tumors were inoculated and the tumor sizes reached […], with 5, 15, or 50 mg/kg formulated with 10% DMSO, 90% (2% Tween 80 in PEG 400) and sacrificed humanely 24 hours post-dose. Blood was obtained for isolation of plasma for terminal compound exposure. Tumors was removed and divided in 2 portions, one each for terminal compound concentration and for determination of IRAK-4 content. Compound concentrations were determined by LC/MS with calibrated standards. IRAK-4 content in tumor lysate was quantified by ELISA and normalized to total protein concentration per sample. […]

| Compound | DC50 (IRAK-4 [1]) [nM] | Dmax (IRAK-4 [1]) [%] | PBMC DC90 (IRAK-4 [1]) | IC50 (IL6 [2]) [nM] | IC50 (IL8) [nM] | IC50 (IL6 [3]) [nM] | Dmax (IRAK-4 [4]) [%] | DC50 (IRAK-4 [4]) [nM] | IC50 (IL6 [5]) [nM] | IRAK-4 concentration in spleen and lung samples (IRAK-4 [6]) | IRAK-4 concentration in the tumor samples (IRAK-4 [7]) | Dmax (IL6 [2]) [%] | Dmax (IL6 [3]) [%] | Emax (IL6 [5]) [%] | Emax (IL8) [%] |
| --- | --- | --- | --- | --- | --- | --- | --- | --- | --- | --- | --- | --- | --- | --- | --- |
| O=C1CCC(N2C(=O)c3ccc(N4CC(F)(CN5CCC(n6cc7cc(NC(=O)c8cnn9cccnc89)c(OCC8CC8)cc7n6)CC5)C4)cc3C2=O)C(=O)N1 (stereo not drawn) [Example 161, N-(6-(cyclopropylmethoxy)-2-(1-((1-(2-(2,6-dioxopiperidin-3-yl)-1,3-dioxoisoindolin-5-yl)-3-fluoroazetidin-3-yl)methyl)piperidin-4-yl)-2H-indazol-5-yl)pyrazolo[1,5-a]pyrimidine-3-carboxamide] | 1 to 5 | ≥ 90 | B (B represents a DC90 value ≥10.0 nM and <25.0 nM) | 10 to 50 | ≥ 100 | 10 to 50 | ≥ 90 | 10 to 50 | 10 to 50 | – | – | ≥ 90 | 70 to 80 | 80 to 90 | – |
| CC(C)Oc1cc2c(cc1NC(=O)c1cnn3cccnc13)CN(C1CCN(C(C)(C)C3CN(c4ccc5c(c4)C(=O)N(C4CCC(=O)NC4=O)C5=O)C3)CC1)C2=O (stereo not drawn) [Example 112] | 1 to 5 | ≥ 90 | A (A represents a DC90 value <10.0 nM) | 10 to 50 | – | 10 to 50 | – | – | – | much lower | lower | ≥ 90 | ≥ 90 | – | – |
| COc1cc(N2CCC(CN3CCC(N4Cc5cc(NC(=O)c6cnn7cccnc67)c(OC(C)C)cc5C4=O)CC3)CC2)cc2c1C(=O)N(C1CCC(=O)NC1=O)C2 (stereo not drawn) [Example 23] | < 1 | ≥ 90 | A (A represents a DC90 value <10.0 nM) | 10 to 50 | 10 to 50 | 10 to 50 | 80 to 90 | < 10 | < 10 | – | – | ≥ 90 | 70 to 80 | ≥ 90 | 80 to 90 |
| O=C1CCC(N2Cc3cc(N4CCC(CN5CCC(N6Cc7cc(NC(=O)c8cnn9cccnc89)c(N8CCC(N9CCC9)CC8)cc7C6=O)CC5)CC4)ccc3C2=O)C(=O)N1 (stereo not drawn) [Example 97] | < 1 | 80 to 90 | A (A represents a DC90 value <10.0 nM) | 10 to 50 | 10 to 50 | < 10 | ≥ 90 | < 10 | < 10 | – | – | ≥ 90 | ≥ 90 | ≥ 90 | ≥ 90 |

The next lines start with results.

| DC50 (IRAK-4 [1]) [nM] | Dmax (IRAK-4 [1]) [%] | PBMC DC90 (IRAK-4 [1]) | IC50 (IL6 [2]) [nM] | IC50 (IL8) [nM] | IC50 (IL6 [3]) [nM] | Dmax (IRAK-4 [4]) [%] | DC50 (IRAK-4 [4]) [nM] | IC50 (IL6 [5]) [nM] | IRAK-4 concentration in spleen and lung samples (IRAK-4 [6]) | IRAK-4 concentration in the tumor samples (IRAK-4 [7]) | Compound | Dmax (IL6 [2]) [%] | Dmax (IL6 [3]) [%] | Emax (IL6 [5]) [%] | Emax (IL8) [%] |
| --- | --- | --- | --- | --- | --- | --- | --- | --- | --- | --- | --- | --- | --- | --- | --- |
| < 1 | ≥ 90 | A (A represents a DC90 value <10.0 nM) | – | ≥ 100 | – | ≥ 90 | < 10 | 10 to 50 | much lower | – | O=C1CCC(N2C(=O)c3ccc(N4CCN(CCN5CCC(n6cc7cc(NC(=O)c8cnn9cccnc89)c(OCC8CC8)cc7n6)CC5)CC4)cc3C2=O)C(=O)N1 (stereo not drawn) [Example 167] | – | – | ≥ 90 | 80 to 90 |
| < 1 | ≥ 90 | 1 nM | < 10 | 10 to 50 | < 10 | ≥ 90 | < 10 | < 10 | – | – | CC(C)Oc1cc2c(cc1NC(=O)c1cnn3cccnc13)CN(C1CCN(CC3CCN(c4ccc5c(c4)C(=O)N(C4CCC(=O)NC4=O)C5=O)CC3)CC1)C2=O (stereo not drawn) [Example 1, N-(2-(1-((1-(2-(2,6-dioxopiperidin-3-yl)-1,3-dioxoisoindolin-5-yl)piperidin-4-yl)methyl)piperidin-4-yl)-6-isopropoxy-1-oxoisoindolin-5-yl)pyrazolo[1,5-a]pyrimidine-3-carboxamide] | ≥ 90 | 80 to 90 | ≥ 90 | 70 to 80 |
| 1 to 5 | ≥ 90 | A (A represents a DC90 value <10.0 nM) | 10 to 50 | 10 to 50 | 10 to 50 | ≥ 90 | 10 to 50 | < 10 | – | – | O=C1CCC(N2C(=O)c3ccc(N4CCC(CN5CCC(n6cc7cc(NC(=O)c8cnn9cccnc89)c(OCC8CC8)cc7n6)CC5)CC4)cc3C2=O)C(=O)N1 (stereo not drawn) [Example 165] | ≥ 90 | 70 to 80 | 80 to 90 | 70 to 80 |
| < 1 | ≥ 90 | A (A represents a DC90 value <10.0 nM) | < 10 | < 10 | 10 to 50 | ≥ 90 | < 10 | < 10 | – | – | CC(C)Oc1cc2c(cc1NC(=O)c1cnn3cccnc13)CN([C@H]1CC[C@H](N(C)C3CN(c4ccc5c(c4)C(=O)N(C4CCC(=O)NC4=O)C5=O)C3)CC1)C2=O (stereo partly drawn) [Example 313, N-(2-((1r,4r)-4-((1-(2-(2,6-dioxopiperidin-3-yl)-1,3-dioxoisoindolin-5-yl)azetidin-3-yl)(methyl)amino)cyclohexyl)-6-isopropoxy-1-oxoisoindolin-5-yl)pyrazolo[1,5-a]pyrimidine-3-carboxamide] | ≥ 90 | 80 to 90 | ≥ 90 | < 70 |

Reference: patent publication US20230099344A1, “COMPOUNDS AND METHODS FOR THE TARGETED DEGRADATION OF IRAK-4” (Arvinas Operations, Inc., priority 2021, published 2023)
